According to US7498352B2, “TGF-β superfamily production/secretion promoter” (Takeda Pharmaceutical Company Limited, priority 2001, dated 2009):

Tests used:
GDNF = GDNF content of sciatic nerve of KKAy mice fed compound, measured by ELISA; assay type: in vivo, mouse; conditions: 17 week-old female KKAy mice, powder feed containing 0.01% of compound for 7 weeks
Experimental: 17 week-old female KKAy mice (n=10-12) were maintained for 7 weeks on a powder feed (CRF-1, manufactured by Oriental Yeast Co., Ltd.) containing 0.01% of compound (5). Then, sciatic nerve of the mouse was taken and stored at −80° C., until use for the measurement (ca. 10 months).
The stored sciatic nerve was ultrasonicated in a 20-fold volume of a homogenized buffer (0.1 M tris hydrochloride buffer containing 1M sodium chloride, 2% BSA, 2 mM EDTA, 80 trypsin unit/L of aprotinin, 0.02% sodium azide, pH 7.6) and insoluble materials were separated by centrifugation (15,000 rpm, 30 min). The GDNF content of the supernatant was measured by the following ELISA method.
Thus, an anti-hGDNF goat antibody (100 μg/ml) (Genzyme-Techne) was distributed in 10-μl portions in the wells of 96-well round bottom plates and antibody adsorption was allowed to proceed by 2 hours incubation at room temperature. After removing the antibody, each well was washed three times with a washing solution. […] After washing, 30 μl of 4-methylumbelliferyl-β-D-galactoside (produced by Sigma) (10 μg/ml) was added to the substrate, the reaction was allowed to proceed at room temperature for 4 hours and then terminated by addition of 130 μl of 0.1 M glycine-sodium hydroxide buffer (pH 10.3), and the fluorescent intensity of the 4-methylumbelliferone produced was determined (Ex: 360 nm; Em: 450 nm). […]

GDF-15 = GDF-15 expression in dorsal root ganglion of STZ diabetic neuropathy rats, real time quantitative RT-PCR; assay type: in vivo, rat; conditions: STZ (70 mg/kg) male SD rats, 10 mg/kg body weight/day orally for 4 months
Experimental: Streptozotocin (STZ) was administered to 6-week-old male SD rats (n=5-8) at 70 mg/kg to prepare diabetic neuropathy models. Starting from 4 months of the STZ administration, compound (5) was orally administered to the rats for 4 months at the dose of 10 mg/kg body weight/day. Then, dorsal root ganglion of the rats was removed, treated with ISOGEN solution (NIPPON GENE CO., LTD.) and the total RNA was extracted.
Using the obtained total RNA, a primer depicted in 5′-ACTGCATGCCAACCAGAGC-3′ (SEQ ID:1) and a primer depicted in 5′-[…]-3′ (SEQ ID:2), which were prepared based on the reported mRNA sequence of GDF-15, and a fluorescent probe having a GDF-15 specific sequence, […] (SEQ ID:3), and acidic ribosomal phosphoprotein PO as an endogenous control, a real time quantitative RT-PCR (Applied Biosystems) was performed.

left sciatic nerve = assay: Maximum distance of nerve extension (evoked potential) after sciatic nerve transection in STZ diabetic neuropathy rats; assay type: in vivo, rat; conditions: left sciatic nerve transected, 10 mg/kg body weight/day orally for 5 weeks
Experimental: Streptozotocin (STZ, 70 mg/kg) was intravenously injected to 6-week-old male SD rats (n=9-10) to prepare diabetic neuropathy models. After 2 weeks of the STZ administration, the left sciatic nerve of the rats was transected under anesthesia, and compound (5) was orally administered at the dose of 10 mg/kg body weight/day for 5 weeks. After the completion of the administration, the rats were anesthetized, and the distance (maximum distance of extension) from the nerve transection site to the detectable site was measured for evoked potential using a device detecting evoked potential [Neuropack 2, manufactured by NIHON KOHDEN CORPORATION]. As a result, the maximum extension of the compound (5) administration group was extended by 2.4 times as compared to that of the compound (5) non-administration group (control group).

Cc1ccccc1OCCCc1oc(-n2ccnc2C)nc1-c1ccc(Cl)cc1 [compound (5), 4-(4-chlorophenyl)-2-(2-methyl-1-imidazolyl)-5-[3-(2-methylphenoxy)propyl]oxazole]
increase of GDNF content in the sciatic nerve as compared to the control group (GDNF): 87.9%
increase of GDF-15 expression level as compared to non-administration group (control group) (GDF-15): 135%
maximum extension (distance from nerve transection site to site with detectable evoked potential) relative to control group (left sciatic nerve; STZ (70 mg/kg i.v.) male SD rats): 2.4 times
effect of neuroneogenesis and of restoring nerve function (left sciatic nerve; STZ male SD rats): an effect of neuroneogenesis and an effect of restoring nerve function were observed
